# Reference: PubChem BioAssay AID504503 (Southern Research Specialized Biocontainment Screening …, 2011)
# Test system: human PBMC, CCR5-tropic HIV-1 replication, RT activity
# Assay: antiviral activity against R5-tropic HIV-1 in PBMC – cell-based, CCR5-tropic HIV-1, primary PBMCs, dose response (AID 504503)
row,SMILES,IC50
1,COc1ccc(Cn2c(O)cc3nn(-c4nc5ccccc5s4)c(=O)c-3c2C)cc1,4.88 µM
2,COc1ccc(CCn2c(O)cc3nn(-c4nc5ccccc5s4)c(=O)c-3c2C)cc1,5.11 µM
3,Cc1c2c(=O)n(-c3nc4ccccc4s3)nc-2cc(O)n1CCc1ccc(O)cc1,1.29 µM
4,Cc1c2c(=O)n(-c3nc4ccccc4s3)nc-2cc(O)n1Cc1cccs1,10.5 µM
5,Cc1c2c(=O)n(-c3nc4ccccc4s3)nc-2cc(O)n1C1CC1,2.17 µM
6,Cc1c2c(=O)n(-c3nc4ccccc4s3)nc-2cc(O)n1Cc1ccc(F)cc1,6.8 µM
7,Cc1c2c(=O)n(-c3nc4ccccc4s3)nc-2cc(O)n1CCC(C)C,5.37 µM
8,COc1ccccc1Cn1c(O)cc2nn(-c3nc4ccccc4s3)c(=O)c-2c1C,3.93 µM
9,Cc1c2c(=O)n(-c3nc4ccccc4s3)nc-2cc(O)n1Cc1ccncc1,1.6 µM
10,Cc1c2c(=O)n(-c3nc4ccccc4s3)nc-2cc(O)n1Cc1ccccc1Cl,5.16 µM
11,Cc1c2c(=O)n(-c3nc4ccccc4s3)nc-2cc(O)n1Cc1cccnc1,2.82 µM
12,Cc1c2c(=O)n(-c3nc4ccccc4s3)nc-2cc(O)n1CCc1cccs1,16.6 µM
